Data on 31 compounds can be found in patent publication US8822467B2 (Ligand Pharmaceuticals Inc., priority 2009, dated 2014).

By IC50 is commonly meant the concentration needed to halve the response being measured.

Bounds are passed on as bounds.

The target of one experiment is T1, human CRTH2 (Homo sapiens, UniProt Q9Y5Y4).
T1 construct: expressed in transfected cells
T1 sequence (Q9Y5Y4 1-395): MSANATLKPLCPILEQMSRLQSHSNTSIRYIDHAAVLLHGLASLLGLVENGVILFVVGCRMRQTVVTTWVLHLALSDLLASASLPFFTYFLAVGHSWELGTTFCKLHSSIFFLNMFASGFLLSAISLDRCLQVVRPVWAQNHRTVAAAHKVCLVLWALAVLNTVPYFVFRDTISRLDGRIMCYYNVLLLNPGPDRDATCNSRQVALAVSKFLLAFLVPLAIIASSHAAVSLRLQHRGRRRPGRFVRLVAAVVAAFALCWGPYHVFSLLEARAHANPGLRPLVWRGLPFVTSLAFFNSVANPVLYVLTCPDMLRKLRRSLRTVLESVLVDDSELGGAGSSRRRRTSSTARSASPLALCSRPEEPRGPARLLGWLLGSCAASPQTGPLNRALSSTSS
Nature of the experiment: [35S]GTPγS binding assay (SPA) on membranes from CHO-K1 cells stably expressing human CRTH2, stimulated with 60 nM DHK-PGD2. Type of experiment: biochemical. As to conditions: membranes of CHO-K1 cells expressing human CRTH2; 60 nM DHK-PGD2; Table 1; read-out: CRTH2 hGTPγS IC50. As to the method: [^35S]GTPγS Binding Assay
SPA [^35S]G-TPγS binding was performed on membranes from CHO-K1 cells stably expressing human CRTH2. To a white, clear-bottomed 384-well plate, 4 μg membrane protein was incubated in the binding buffer (20 mM HEPES, pH 7.4, 10 mM MgCl2, 300 mM NaCl, 0.2% BSA) with 60 nM DHK-PGD2, 500 pM [^35S]GTPγS, 10 μM GDP, and 100 μg wheat germ agglutinin-coupled SPA beads (GE Healthcare) with and without increasing concentrations of compounds. The final assay volume was 40 μL and contained 1% DMSO. Samples were incubated for 2 h at ambient temperature. Plates were centrifuged 5 min at 1500 rpm. Plates were read after an additional 4 h using the Trilux 1450 Microbeta (PerkinElmer) with a 30 sec/well reading time.
(GTPγS is a poorly hydrolysed GTP analogue; its binding reports G protein activation.)
As to `CN(Cc1ccc(OCC(=O)O)c(-c2cccc(C#N)c2)c1)S(=O)(=O)c1cc(F)cc(F)c1` [Example 97, 2-(3-cyanophenyl)-4-((3,5-difluoro-N-methylphenylsulfonamido)methyl)phenoxyacetic acid], the IC50 turned out to be 43 nM.
Same read-out and setting: for `O=C(O)COc1ccc(CNS(=O)(=O)c2ccc(F)cc2)cc1-c1cccc(C(F)(F)F)c1` [Example 110] the value was 169 nM.

Still in this experiment, the particulars now being: potency class symbols; Table 2; read-out: CRTH2 hGTPγS IC50.
As to `CN(Cc1ccc(OCC(=O)O)c(-c2cccc(S(C)(=O)=O)c2)c1)S(=O)(=O)c1cccc(C#N)c1` [Example 88, 2-(3-methylsulfonylphenyl)-4-((3-cyano-N-methylphenylsulfonamido)methyl)phenoxyacetic acid], the IC50 is under 100 nM.
On the same count and under the same terms, for `CN(Cc1ccc(OCC(=O)O)c(-c2cccc(C#N)c2)c1)S(=O)(=O)c1cccc(F)c1` [Example 89, 2-(3-cyanophenyl)-4-((3-fluoro-N-methylphenylsulfonamido)methyl)phenoxyacetic acid] the value was under 100 nM.
On to `CN(Cc1ccc(OCC(=O)O)c(-c2cc(F)cc(F)c2)c1)S(=O)(=O)c1ccc(F)c(F)c1` [Example 90, 2-(3,5-difluorophenyl)-4-((3,4-difluoro-N-methylphenylsulfonamido)methyl)phenoxyacetic acid], for which the IC50 was under 100 nM.
Same read-out and setting: for `CN(Cc1ccc(OCC(=O)O)c(-c2cccc(C(F)(F)F)c2)c1)S(=O)(=O)c1ccc(F)c(F)c1` [Example 91, 2-(3-trifluoromethylphenyl)-4-((3,4-difluoro-N-methylphenylsulfonamido)methyl)phenoxyacetic acid] the value was under 100 nM.
For `Cc1ccc(S(=O)(=O)N(C)Cc2ccc(OCC(=O)O)c(-c3cccc(C#N)c3)c2)cc1F` [Example 92, 2-(3-cyanophenyl)-4-((3-fluoro-4-methyl-N-methylphenylsulfonamido)methyl)phenoxyacetic acid], the IC50 is under 100 nM.
As for `CC(c1ccc(OCC(=O)O)c(-c2cccc(C(F)(F)F)c2)c1)N(C)S(=O)(=O)c1ccc(F)c(F)c1` (stereo not drawn) [Example 93, 2-(3-trifluoromethylphenyl)-4-(1-(3,4-difluoro-N-methylphenylsulfonamido)ethyl)phenoxyacetic acid], the IC50 is under 100 nM.
For the compound `CN(Cc1ccc(OCC(=O)O)c(-c2cccc(S(C)(=O)=O)c2)c1)S(=O)(=O)c1ccccc1F` [Example 94, 2-(3-methylsulfonylphenyl)-4-((2-fluoro-N-methylphenylsulfonamido)methyl)phenoxyacetic acid], the IC50 is under 100 nM.
The same measure, in the same setting: for `CN(Cc1ccc(OCC(=O)O)c(-c2cccc(C(F)(F)F)c2)c1)S(=O)(=O)c1ccc(F)cc1` [Example 95, 2-(3-trifluoromethylphenyl)-4-((4-fluoro-N-methylphenylsulfonamido)methyl)phenoxyacetic acid] the value was under 100 nM; for `COc1cc(F)cc(-c2cc(CN(C)S(=O)(=O)c3ccc(F)cc3)ccc2OCC(=O)O)c1` [Example 96, 2-(3-methoxy-5-fluorophenyl)-4-((4-fluoro-N-methylphenylsulfonamido)methyl)phenoxyacetic acid], under 100 nM.
Same read-out and setting: for `CN(Cc1ccc(OCC(=O)O)c(-c2cccc(C#N)c2)c1)S(=O)(=O)c1cc(F)cc(F)c1` [Example 97, 2-(3-cyanophenyl)-4-((3,5-difluoro-N-methylphenylsulfonamido)methyl)phenoxyacetic acid] the value was under 100 nM.
Same read-out and setting: the result for `CN(Cc1cc(-c2cccc(C#N)c2)c(OCC(=O)O)cc1F)S(=O)(=O)c1ccccc1` [Example 98, 2-(3-cyanophenyl)-4-((N-methylphenylsulfonamido)methyl)-5-fluorophenoxyacetic acid] reads under 100 nM; that for `CN(Cc1ccc(OCC(=O)O)c(-c2cccc(C#N)c2)c1)S(=O)(=O)c1cc(F)cc(Cl)c1` [Example 99, 2-(3-cyanophenyl)-4-((3-chloro-5-fluoro-N-methylphenylsulfonamido)methyl)phenoxyacetic acid], under 100 nM.
`CC(C)Oc1cc(F)cc(-c2cc(CN(C)S(=O)(=O)c3ccc(F)cc3)ccc2OCC(=O)O)c1` [Example 100, 2-(3-isopropoxy-5-fluorophenyl)-4-((4-fluoro-N-methylphenylsulfonamido)methyl)phenoxyacetic acid]: the IC50 is under 100 nM.
On the same count and under the same terms, the result for `CN(Cc1ccc(OCC(=O)O)c(-c2ccc3ccn(C)c3c2)c1)S(=O)(=O)c1ccc(F)cc1` [Example 101, 2-(1-methyl-indol-6-yl)-4-((4-fluoro-N-methylphenylsulfonamido)methyl)phenoxyacetic acid] reads under 100 nM; that for `CN(Cc1ccc(OCC(=O)O)c(-c2cccc(C#N)c2)c1)S(=O)(=O)c1cccc(C(F)(F)F)c1` [Example 102, 2-(3-cyanophenyl)-4-((3-trifluoromethyl-N-methylphenylsulfonamido)methyl)phenoxyacetic acid], 100 to 1000 nM.
Turning to `COc1cc(S(=O)(=O)N(C)Cc2ccc(OCC(=O)O)c(-c3cccc(C#N)c3)c2)ccc1F` [Example 103, 2-(3-cyanophenyl)-4-((3-methoxy-4-fluoro-N-methylphenylsulfonamido)methyl)phenoxyacetic acid], the IC50 lay in the range of 100 to 1000 nM.
Same read-out and setting: the result for `COc1ccc(S(=O)(=O)N(C)Cc2ccc(OCC(=O)O)c(-c3cccc(C#N)c3)c2)cc1` [Example 104, 2-(3-cyanophenyl)-4-((4-methoxy-N-methylphenylsulfonamido)methyl)phenoxyacetic acid] reads 100 to 1000 nM; that for `CN(Cc1ccc(OCC(=O)O)c(-c2cccc(C(N)=O)c2)c1)S(=O)(=O)c1ccc(F)cc1` [Example 105, 2-(3-aminocarbonylphenyl)-4-((4-fluoro-N-methylphenylsulfonamido)methyl)phenoxyacetic acid], 100 to 1000 nM.
The same measure, in the same setting: the result for `CN(Cc1ccc(OCC(=O)O)c(-c2cc(F)cc(F)c2)c1)S(=O)(=O)c1ccc(F)cc1` [Example 106, 2-(3,5-difluorophenyl)-4-((4-fluoro-N-methylphenylsulfonamido)methyl)phenoxyacetic acid] reads 100 to 1000 nM; that for `CN(Cc1ccc(OCC(=O)O)c(-c2cccc(C(F)(F)F)c2)c1)S(=O)(=O)c1ccc(F)cc1F` [Example 107, 2-(3-trifluoromethylphenyl)-4-((2,4-difluoro-N-methylphenylsulfonamido)methyl)phenoxyacetic acid], 100 to 1000 nM.
Same read-out and setting: the result for `CN(Cc1ccc(OCC(=O)O)c(-c2cncc(C#N)c2)c1)S(=O)(=O)c1ccc(F)cc1` [Example 108, 2-(3-cyano-5-pyridinyl)-4-((4-fluoro-N-methylphenylsulfonamido)methyl)phenoxyacetic acid] reads 100 to 1000 nM; that for `Cc1ccc(S(=O)(=O)N(C)Cc2ccc(OCC(=O)O)c(-c3cccc(C#N)c3)c2)cc1` [Example 109, 2-(3-cyanophenyl)-4-((4-methyl-N-methylphenylsulfonamido)methyl)phenoxyacetic acid], 100 to 1000 nM; that for `O=C(O)COc1ccc(CNS(=O)(=O)c2ccc(F)cc2)cc1-c1cccc(C(F)(F)F)c1` [Example 110], 100 to 1000 nM.
Consider `CN(Cc1ccc(OCC(=O)O)c(-c2cccc(C(F)(F)F)c2)c1)S(=O)(=O)c1cccc(Cl)c1` [Example 111, 2-(3-trifluoromethylphenyl)-4-((3-chloro-N-methylphenylsulfonamido)methyl)phenoxyacetic acid], for which the IC50 was in the range of 100 to 1000 nM.
As for `CCOc1cc(F)cc(-c2cc(CN(C)S(=O)(=O)c3ccc(F)cc3)ccc2OCC(=O)O)c1` [Example 112, 2-(3-ethoxy-5-fluorophenyl)-4-((4-fluoro-N-methylphenylsulfonamido)methyl)phenoxyacetic acid], the IC50 fell in the range of 100 to 1000 nM.
Same read-out and setting: for `CCN(Cc1ccc(OCC(=O)O)c(-c2cccc(C(F)(F)F)c2)c1)S(=O)(=O)c1ccc(F)c(F)c1` [Example 113, 2-(3-trifluoromethylphenyl)-4-((3,4-difluoro-N-ethylphenylsulfonamido)methyl)phenoxyacetic acid] the value was 100 to 1000 nM; for `COCc1cccc(-c2cc(CN(C)S(=O)(=O)c3ccc(F)cc3)ccc2OCC(=O)O)c1` [Example 114, 2-(3-methoxymethylphenyl)-4-((4-fluoro-N-methylphenylsulfonamido)methyl)phenoxyacetic acid], 100 to 1000 nM.
Turning to `CN(Cc1ccc(OCC(=O)O)c(-c2cc(C(F)(F)F)ccc2Cl)c1)S(=O)(=O)c1ccc(F)cc1` [Example 115, 2-(2-chloro-5-trifluoromethylphenyl)-4-((4-fluoro-N-methylphenylsulfonamido)methyl)phenoxyacetic acid], the IC50 was 100 to 1000 nM.
For the compound `CN(Cc1ccc(OCC(=O)O)c(-c2cccc(C(F)(F)F)c2)c1)S(=O)(=O)c1ccc(Cl)cc1` [Example 116, 2-(3-trifluoromethylphenyl)-4-((4-chloro-N-methylphenylsulfonamido)methyl)phenoxyacetic acid], the concentration for half-maximal inhibition (IC50) was 100 to 1000 nM.
Same read-out and setting: for `CC(C)c1cccc(-c2cc(CN(C)S(=O)(=O)c3ccc(F)cc3)ccc2OCC(=O)O)c1` [Example 117, 2-(3-isopropylphenyl)-4-((4-fluoro-N-methylphenylsulfonamido)methyl)phenoxyacetic acid] the value was 100 to 1000 nM; for `CN(Cc1ccc(OCC(=O)O)c(-c2cc(F)ccc2F)c1)S(=O)(=O)c1ccc(F)cc1` [Example 118, 2-(2,5-difluorophenyl)-4-((4-fluoro-N-methylphenylsulfonamido)methyl)phenoxyacetic acid], 100 to 1000 nM.
